Here are results for one compound from paper doi:10.1101/2021.02.09.430557v1 (biorxiv, 2021).

The target of this test is T1, AnHSD (Paenarthrobacter nicotinovorans, UniProt A0ABT9TQY6).
T1 sequence (A0ABT9TQY6 1-348): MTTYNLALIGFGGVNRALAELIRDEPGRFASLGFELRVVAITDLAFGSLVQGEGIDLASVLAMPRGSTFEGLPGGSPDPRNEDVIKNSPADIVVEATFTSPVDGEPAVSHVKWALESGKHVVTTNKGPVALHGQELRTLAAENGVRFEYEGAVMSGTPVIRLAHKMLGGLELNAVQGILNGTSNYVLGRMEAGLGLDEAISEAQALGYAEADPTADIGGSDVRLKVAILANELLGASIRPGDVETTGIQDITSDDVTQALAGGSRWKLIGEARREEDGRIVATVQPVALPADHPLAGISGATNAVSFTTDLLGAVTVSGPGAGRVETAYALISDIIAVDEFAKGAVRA
As to the kind of experiment: residual L-homoserine oxidation activity, absorbance at […] nm. The settings on record: read-out: Relative activity (%) at 10 mM. Type of test: biochemical.

Turning to `N[C@@H](CC(=O)O)C(=O)O` [L-aspartate], the activity at 10000 µM came to 76.7 ± 1.53%.
